Source: patent US7790727B2, “Benzenesulfonanilide compounds suitable for treating disorders that respond to modulation of the serotonin 5-HT6 receptor” (Abbott GmbH & Co. KG, priority 2007, dated 2010)
pKi: −log10 of the molar value. Where a name gives a salt, the structure may show the parent alone.

What follows are compounds tested against T1, h-5-HT6 receptor (Homo sapiens, UniProt P50406) (assay: 5-HT6 receptor binding assay (displacement of [3H]-LSD)). Settings: not given.
T1 construct: expressed in transfected cells
Procedure: Displacement of radioligands binding to the following cloned human receptors
1. Preparation of Membranes by Ultrasonic Treatment and Differential Centrifugation
Cells from stable clonal cell lines expressing the corresponding receptor (5-HT6, α1-adrenergic, dopamine D2 or histamine H1 receptors) were washed with PBS (w/o Ca^++, Mg^++) and harvested in PBS with 0.02% EDTA. The cells were collected by centrifugation at 500 g for 10 min. at 4° C., washed with PBS and centrifuged (500 g, 10 min. 4° C.). The pellets were stored at −80° C. until use. F or membrane preparation, the thawed cell pellet was resuspended in ice-cold sucrose buffer (0.25 M sucrose, 10 mM Hepes (pH 7.4), 1 mM Phenylmethylsulfonyl fluoride (PMSF) in DMSO, 5 μg/ml Pepstatin-A, 3 mM EDTA, 0.025% Bacitracin) and homogenized with a Branson Sonifier W-250 (Settings: Timer 4; Output Control 3; Duty Cycle constant; 2 to 3 cycles). Cell disruption was checked with the aid of a microscope. Remaining unbroken cells were pelleted at 1.000 g for 10 min. at 4° C. The sucrose buffer supernatant was then centrifuged at 60.000 g for 1 h at 4° C. (Beckman Ultrazentrifuge XL 80). The pellet was resuspended in 30 ml ice-cold Tris buffer (20 mM TRIS (pH 7.4), 5 μg/ml Pepstatin A, 0.1 mM PMSF, 3 mM EDTA) by pipetting through a 10 ml serological pipet and centrifuged for 1 h at 4° C. at 60.000 g. A final resuspension was performed in a small volume of ice-cold Tris buffer (see above) by pressing through a serological pipet followed by ultrasonic treatment with a Branson Sonifier W-250 (Settings: Timer 1; Output Control 3; Duty Cycle constant; 1 cycle). Protein concentration was determined (BCA-Kit; Pierce) and aliquots stored at −80° C. or in liquid nitrogen for long-term storage.
2. Receptor Binding Experiments
All receptor binding experiments were carried out in the corresponding assay buffer in a total volume of 200 μl in the presence of various concentrations of test compound (10^−5 M to 10^−9 M, tenfold serial dilution, duplicate determinations). The assays were terminated by filtration on polyethylenimine (PEI 0.1% or 0.3%) presoaked Packard Unifilter Plates (GF/C or GF/B) with a Tomtec Machill U 96 well-plate harvester. After the plates had been dried for 2 h at 55° C. in a drying chamber scin tillation cocktail (BetaPlate Scint; PerkinElmer) was added. Radioactivity was measured in a Microbeta Trilux two hours after the addition of the scintillation mixture. Data derived from liquid scintillation counting were analysed by iterative non-linear regression analysis with the use of the Statistical Analysis System (SAS): a program similar to “LIGAND” as described by Munson and Rodbard (Analytical Biochemistry 107, 220-239 (1980).
a) 5-HT6 Receptor Binding Assay
HEK293 cells stably expressing the h-5-HT6 receptor (NCBI Reference Sequence XM 001435) were cultured in RPMI1640 medium supplemented with 25 mM HEPES, 10% fetal calf serum and 1-2 mM glutamine. The membrane preparation was performed as described in section 1. […] Non-specific binding was defined with 1 μM methiothepin. The binding reaction was carried out for 3.5 h at room temperature. During the incubation, the plates were shaken on a plate shaker at 100 rpm and terminated by filtration on Packard Unifilter GF/C (0.1% PEI) plates, followed by 2 wash cycles with ice-cold 50 mM Tris-HCl, 5 mM CaCl2.
Data derived from liquid scintillation counting were analyzed by iterative non-linear regression analysis with the use of the Statistical Analysis System (SAS): a program similar to “LIGAND” as described by Munson and Rodbard (Anal. Biochem. 1980, 107, 220-239). Fitting was performed according to formulae described by Feldman (Anal. Biochem. 1972, 48, 317-338). IC50, nH and Ki values were expressed as geometrical mean.

T1 sequence (P50406 whole entry): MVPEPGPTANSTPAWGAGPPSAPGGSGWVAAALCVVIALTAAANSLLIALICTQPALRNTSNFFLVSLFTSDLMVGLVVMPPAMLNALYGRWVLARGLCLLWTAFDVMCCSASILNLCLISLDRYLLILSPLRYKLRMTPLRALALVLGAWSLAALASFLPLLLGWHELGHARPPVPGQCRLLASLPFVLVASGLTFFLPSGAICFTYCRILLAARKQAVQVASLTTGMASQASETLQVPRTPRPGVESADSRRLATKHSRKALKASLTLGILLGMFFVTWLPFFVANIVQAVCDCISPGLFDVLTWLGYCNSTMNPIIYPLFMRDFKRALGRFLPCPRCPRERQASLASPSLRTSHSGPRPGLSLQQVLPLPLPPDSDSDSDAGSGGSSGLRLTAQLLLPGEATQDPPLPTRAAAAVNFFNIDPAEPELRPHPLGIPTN

| SMILES | pKi |
| --- | --- |
| O=S(=O)(Nc1ccc(F)c(N2CCNCC2)c1)c1cccc(OC(F)F)c1 [Example 26, 3-Difluoromethoxy-N-(4-fluoro-3-piperazin-1-yl-phenyl)-benzenesulfonamide Hydrochloride] | > 7.30 |

Same assay, conditions: membranes of HEK293 cells expressing h-5-HT6 receptor, 1 nM [3H]-LSD; read-out: Ki(5HT6)

| SMILES | pKi |
| --- | --- |
| COc1ccc(NS(=O)(=O)c2cccc(OC(F)F)c2)cc1N1CCNCC1 [Example 1, 3-Difluoromethoxy-N-(4-methoxy-3-piperazin-1-yl-phenyl)-benzenesulfonamide Hydrochloride] | > 8.00 |
| COc1ccc(N(C)S(=O)(=O)c2cccc(OC(F)F)c2)cc1N1CCNCC1 [Example 2, 3-Difluoromethoxy-N-(4-methoxy-3-piperazin-1-yl-phenyl)-N-methyl-benzene-sulfonamide Hydrochloride] | > 7.70 |
| COc1ccc(NS(=O)(=O)c2ccc(OC(F)F)cc2)cc1N1CCN(C)CC1 [Example 3, 4-Difluoromethoxy-N-[4-methoxy-3-(4-methyl-piperazin-1-yl)-phenyl]-benzenesulfonamide] | > 7.70 |
| COc1ccc(NS(=O)(=O)c2cccc3c2OC(F)(F)O3)cc1N1CCNCC1 [Example 4, 2,2-Difluoro-benzo[1,3]dioxole-4-sulfonic Acid (4-methoxy-3-piperazin-1-yl-phenyl)-amide Hydrochloride] | > 8.00 |
| O=S(=O)(Nc1ccc(OC(F)(F)F)c(N2CCNCC2)c1)c1cccc(OC(F)F)c1 [Example 6, 3-Difluoromethoxy-N-(3-piperazin-1-yl-4-trifluoromethoxy-phenyl)-benzenesulfonamide] | > 7.70 |
| O=S(=O)(Nc1ccc(OC(F)F)c(N2CCNCC2)c1)c1ccccc1OC(F)F [Example 7, 2-Difluoromethoxy-N-(3-piperazin-1-yl-4-difluoromethoxy-phenyl)-benzenesulfonamide Trifluoroacetate] | > 7.30 |
| COc1ccc(NS(=O)(=O)c2cc(OC(F)F)ccc2OC)cc1N1CCNCC1 [Example 8, 5-Difluoromethoxy-2-methoxy-N-(4-methoxy-3-piperazin-1-yl-phenyl)-benzene-sulfonamide Hydrochloride] | > 8.00 |
| COc1c(F)cc(NS(=O)(=O)c2cccc(OC(F)F)c2)cc1N1CCNCC1 [Example 9, 3-Difluoromethoxy-N-(3-fluoro-4-methoxy-5-piperazin-1-yl-phenyl)-benzenesulfonamide Hydrochloride] | > 7.30 |
| COc1c(F)cc(NS(=O)(=O)c2cccc3c2OC(F)(F)O3)cc1N1CCNCC1 [Example 10, 2,2-Difluoro-benzo[1,3]dioxole-4-sulfonic acid (3-fluoro-4-methoxy-5-piperazin-1-yl-phenyl)-amide Hydrochloride] | > 8.00 |
| O=S(=O)(Nc1ccc(OCCF)c(N2CCNCC2)c1)c1cccc(OC(F)F)c1 [Example 11, 3-Difluoromethoxy-N-[4-(2-fluoroethoxy)-3-piperazin-1-yl-phenyl]-benzenesulfonamide Hydrochloride] | > 8.00 |
| O=S(=O)(Nc1ccc(OCCF)c(N2CCNCC2)c1)c1cccc2c1OC(F)(F)O2 [Example 12, 2,2-Difluoro-benzo[1,3]dioxole-4-sulfonic acid (4-(2-fluoroethoxy)-5-piperazin-1-yl-phenyl)-amide Hydrochloride] | > 7.30 |
| COc1ccc(S(=O)(=O)Nc2ccc(OC)c(N3CCNCC3)c2)cc1OC(F)F [Example 13, 3-Difluoromethoxy-4-methoxy-N-(4-methoxy-3-piperazin-1-yl-phenyl)-benzenesulfonamide Hydrochloride] | > 8.00 |
| COc1ccc(NS(=O)(=O)c2ccccc2OC(F)F)cc1N1CCNCC1 [Example 14, 2-Difluoromethoxy-N-(4-methoxy-3-piperazin-1-yl-phenyl)-benzenesulfonamide Trifluoroacetate] | > 8.00 |
| COc1ccc(NS(=O)(=O)c2ccc(OC(F)F)cc2)cc1N1CCNCC1 [Example 15, 4-Difluoromethoxy-N-(4-methoxy-3-piperazin-1-yl-phenyl)-benzenesulfonamide Hydrochloride] | > 7.30 |
| CCN(c1ccc(OC)c(N2CCN(C)CC2)c1)S(=O)(=O)c1cccc(OC(F)F)c1 [Example 16, 3-Difluoromethoxy-N-ethyl-N-[4-methoxy-3-(4-methyl-piperazin-1-yl)-phenyl]-benzenesulfonamide Hydrochloride] | > 8.00 |
| COc1ccc(N(CCCF)S(=O)(=O)c2cccc(OC(F)F)c2)cc1N1CCNCC1 [Example 17, 3-Difluoromethoxy-N-(3-fluoropropyl)-N-(4-methoxy-3-piperazin-1-yl-phenyl)-benzenesulfonamide Hydrochloride] | > 7.30 |
| CCCN(c1ccc(OC)c(N2CCNCC2)c1)S(=O)(=O)c1cccc(OC(F)F)c1 [Example 18, 3-Difluoromethoxy-N-(4-methoxy-3-piperazin-1-yl-phenyl)-N-propyl-benzene-sulfonamide Hydrochloride] | > 7.30 |
| COc1cc(Cl)c(NS(=O)(=O)c2cccc(OC(F)F)c2)cc1N1CCNCC1 [Example 19, N-(2-Chloro-4-methoxy-5-piperazin-1-yl-phenyl)-3-difluoromethoxy-benzene-sulfonamide Trifluoroacetate] | > 7.30 |
| CN1CCN(c2cc(NS(=O)(=O)c3cccc(OC(F)F)c3)ccc2OC(F)(F)F)CC1 [Example 20, 3-Difluoromethoxy-N-[3-(4-methyl-piperazin-1-yl)-4-trifluoromethoxy-phenyl]-benzenesulfonamide Hydrochloride] | > 8.00 |
| COc1ccc(N(C)S(=O)(=O)c2cccc3c2OC(F)(F)O3)cc1N1CCN(C)CC1 [Example 21, 2,2-Difluoro-benzo[1,3]dioxole-4-sulfonic acid [4-methoxy-3-(4-methyl-piperazin-1-yl)-phenyl]-methyl-amide Hydrochloride] | > 7.30 |
| CCN(c1ccc(OC)c(N2CCNCC2)c1)S(=O)(=O)c1cccc2c1OC(F)(F)O2 [Example 22, 2,2-Difluoro-benzo[1,3]dioxole-4-sulfonic acid ethyl-(4-methoxy-3-piperazin-1-yl-phenyl)-amide Hydrochloride] | > 7.30 |
| COc1ccc(N(C)S(=O)(=O)c2cccc3c2OC(F)(F)O3)cc1N1CCNCC1 [Example 23, 2,2-Difluoro-benzo[1,3]dioxole-4-sulfonic acid methyl-(4-methoxy-3-piperazin-1-yl-phenyl)-amide Hydrochloride] | > 7.30 |
| COc1ccc(N(C)S(=O)(=O)c2cccc(OC(F)F)c2)cc1N1CCN(C)CC1 [Example 24, 3-Difluoromethoxy-N-[4-methoxy-3-(4-methyl-piperazin-1-yl)-phenyl]-N-methyl-benzenesulfonamide Hydrochloride] | > 8.00 |
| COc1ccc(NS(=O)(=O)c2cccc(OC(F)F)c2)cc1N1CCN(C)CC1 [Example 25, 3-Difluoromethoxy-N-[4-methoxy-3-(4-methyl-piperazin-1-yl)-phenyl]-benzenesulfonamide] | > 8.00 |
| O=S(=O)(Nc1ccc(F)c(N2CCNCC2)c1)c1cccc2c1OC(F)(F)O2 [Example 27, 2,2-Difluoro-benzo[1,3]dioxole-4-sulfonic acid (4-fluoro-3-piperazin-1-yl-phenyl)-amide Hydrochloride] | > 7.30 |
| O=S(=O)(Nc1cccc(N2CCNCC2)c1)c1cccc(OC(F)F)c1 [Example 28, 3-Difluoromethoxy-N-(3-piperazin-1-yl-phenyl)-benzenesulfonamide Hydrochloride] | > 7.30 |
| O=S(=O)(Nc1cccc(N2CCNCC2)c1)c1cccc2c1OC(F)(F)O2 [Example 29, 2,2-Difluoro-benzo[1,3]dioxole-4-sulfonic acid (3-piperazin-1-yl-phenyl)-amide Hydrochloride] | > 8.00 |
